Source: patent US9902735B2, “Heteroaryl substituted compounds as RORγ inhibitors” (GlaxoSmithKline Intellectual Property Developement Limited, priority 2014, dated 2018)

Experiments:
[1] = molecular target: T1, RORγ (Homo sapiens, UniProt P51449); assay: Jurkat cell luciferase assay (human IL17 promoter reporter); format: cell-based; conditions: mean of multiple test results if tested more than once; read-out: pIC50 in the Jurkat cell luciferase assay (converted)
T1 construct: expressed in transfected cells
T1 sequence (P51449 1-497 isoform P51449-2): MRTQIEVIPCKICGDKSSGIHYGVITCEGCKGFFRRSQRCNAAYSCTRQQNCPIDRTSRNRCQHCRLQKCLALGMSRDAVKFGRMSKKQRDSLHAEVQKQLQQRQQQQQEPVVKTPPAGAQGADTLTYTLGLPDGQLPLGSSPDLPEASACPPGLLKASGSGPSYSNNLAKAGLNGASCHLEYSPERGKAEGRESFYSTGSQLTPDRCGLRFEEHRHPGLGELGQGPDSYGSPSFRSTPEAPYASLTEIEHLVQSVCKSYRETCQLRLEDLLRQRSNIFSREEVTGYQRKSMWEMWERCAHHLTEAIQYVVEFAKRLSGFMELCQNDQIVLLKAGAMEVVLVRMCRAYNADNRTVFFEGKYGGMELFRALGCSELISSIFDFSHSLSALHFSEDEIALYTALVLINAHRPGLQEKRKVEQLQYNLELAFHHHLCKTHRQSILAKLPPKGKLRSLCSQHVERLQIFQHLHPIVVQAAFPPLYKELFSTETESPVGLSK
Source text: RORγ is known to bind to a CNS (conserved non-coding sequences) enhancer element in the IL17 promoter. In this assay, RORγ activity is indirectly assessed using a luciferase reporter construct which contains the human IL17 promoter having the RORγ-specific CNS enhancer element. Inhibition of RORγ activity by a compound will result in a decrease in luciferase activity of Jurkat cells transfected with the reporter construct.
For the luciferase reporter plasmid, the 3 Kb human IL17 promoter containing the RORγ-specific CNS enhancer element was PCR amplified from human genomic DNA and cloned into a pGL4-Luc2/hygro reporter plasmid sequentially as XhoI-HindIII (1.1 Kb) and KpnI-XhoI (1.9 Kb) fragments. For the 1.1 Kb fragment, PCR was used to amplify human IL17 proximal promoter region from genomic DNA of 293T cells using primers as follows: forward primer, 5′-[…]-3′ (XhoI site is underlined) and reverse primer, 5′-[…]-3′ (HindIII site is underlined). The 1.1 kb DNA bands were excised, purified, and inserted into pMD19-T Simple Vector (Takara). […]
Compounds were dissolved in DMSO at three concentrations, 10 mM, 400 uM and 16 uM, and were dispensed into 384-wells assay plate at 40 nl, 12.5 nl, 5 nl respectively. The volume was adjusted with pure DMSO to a give a final uniform volume of 40 nl Jurkat cells described above were counted and centrifuged. […]

[2] = system: human CD4+ T cells; assay: Human peripheral blood CD4+ T cell cultures and cytokine analysis (Th17 polarization); format: cell-based; conditions: secreted IL-17A, 5 days Th17 polarization
Method: Human biological samples were cryopreserved human CD4+ T cells purchased from AllCells, LLC and Stemcell Technologies, Inc. The CD4+ T cells were differentiated to the Th17 subtype by culturing for 5 days in tissue culture plates coated with anti-CD3 antibody (2 μg/mL) in Iscove's modified Dulbecco's medium (IMDM) containing 10% HI-FBS, 55 μM 2-mercaptoethanol and soluble anti-CD28 (3 μg/mL) in the presence of a Th17 skewing cocktail, including IL-1β (10 ng/mL), IL-6 (30 ng/mL), TGFβ (0.5 ng/mL), IL-21 (10 ng/mL), IL-23 (10 ng/mL), anti-IFNγ (10 μg/mL) and anti-IL-4 (10 μg/mL). To examine compound effects on Th17 polarization, freshly thawed CD4+ cells in IMDM supplemented with all Th17 polarization cocktail constituents (above) were seeded at low cell density (20,000 cells/well) directly into anti-CD3 coated round bottom 96-well plates already containing serially diluted compounds. Cells were incubated undisturbed for 5 days at 37° C. Immediately following culture, supernatant was analyzed for secreted IL-17A and IL-22 protein by MSD electrochemiluminescent cytokine assays (Mesoscale Discovery) and ELISA (Quantikine assay, R&D Systems), respectively. Compound treatment(s) were performed in triplicate. Results are presented as the mean±SD or as mean percent inhibition (±SD) relative to the response to stimulus alone.

Which results are given for Cc1ncc(C(=O)Nc2cc(Cl)cc(CN3CCN(C(=O)CC4CC4)[C@@H](C)C3)c2C)cc1F [Example 80, (S)—N-(5-chloro-3-((4-(2-cyclopropylacetyl)-3-methylpiperazin-1-yl)methyl)-2-methylphenyl)-5-fluoro-6-methylnicotinamide]?
IC50 [1]: ~0.00631 µM; IC50 ([2]; Homo sapiens, CD4+ T, 120 h, read-out: IL17A pIC50 (converted)): 0.0288 µM; Inhibition Activity (ASSYM MAX) [2]: 94
